Bounds are passed on as bounds.

The term melting point denotes the temperature, or range, at which the solid turns liquid. On to `NN(Cc1ccccc1)C(=S)Nc1ccccc1`, for which the melting point was 121 to 123 °C.

In turn, `CCCCOC(C(=O)O)c1ccc2c(c1)C(C)(C)CCC2(C)C` (racemic) came in with a melting point of 79 to 82 °C.

As for `N#Cc1cc(N)ccc1N1CCCC1`, the melting point stood at 113 °C.

In turn, `C=CCOc1ccc(C(=O)Oc2ccc(OCCCCOC(=O)C(=C)C)cc2)cc1` had a melting point of 62 to 63 °C.

Compound `O=C(C1CCN(Cc2ccccc2)CC1)N1CCc2ccccc2C1` registered a melting point of 98 to 100 °C.

Compound `CN1CCC(O)(c2cc(F)c(Br)cc2F)CC1` returned a melting point of 133 to 135 °C.

Compound `O=C1NCCn2c1nc1ccccc12` came in with a melting point above 250 °C.

Take `N#Cc1ccccc1Cn1nnc2cc3c(cc2c1=O)OC1CCCN1C3=O` (stereo not given): the melting point fell in the range of 257 to 260 °C.

In the case of `COc1cc(-c2cc(-c3ccccc3)c(N3CCOCC3)s2)nc(OC)c1OC`, the melting point is 124 °C.

For `O=[N+]([O-])c1ccc2[nH]cc(CCCO)c2c1`, the melting point fell in the range of 107 to 110 °C.

Take `OC(CCCl)COc1ccc(F)cc1` (stereo not given): the melting point was 53 to 55 °C.

The compound `O=[N+]([O-])c1cccc(Oc2cc(Oc3cccc([N+](=O)[O-])c3)cc(C(F)(F)F)c2)c1` registered a melting point of 118 °C.

For `CCOC(=O)Cc1cnc(NS(C)(=O)=O)s1`, the melting point fell in the range of 153 to 155 °C.

Consider `CC[C@@H]1NC(=O)C(F)(F)[C@@H]1O`, for which the melting point lay within 118 to 121 °C.

On to `CCC1(CC)Cc2c(C(=O)O)ccc(OC)c2O1`, for which the melting point is 152 to 154 °C.

Regarding `COC(=O)CC1(CN=C=O)CCCCCC1`, the melting point was 69 to 72 °C.

Regarding `CN1C(C2CCCCC2)Nc2ccc(S(=O)(=O)N3CCOCC3)cc2S1(=O)=O` (stereo not given), the melting point was in the range of 243 to 245 °C.

Turning to `CC(CCc1cccc(F)c1)NCc1c(CO)ccc(O)c1CO` (stereo not given), the melting point lay within 114 to 117 °C.

`CC(=O)NCC(=O)c1ccccc1` registered a melting point of 69 °C.

In turn, `CN1CCN(C(=O)c2cnc(S)n2Cc2cc(F)cc(F)c2)CC1` returned a melting point of 243 to 244 °C.

For `CN(C)CC#Cc1ccc(C(CC2CCCC2)C(=O)Nc2nccs2)cc1` (stereo not given), the melting point was 164 to 167 °C.

`Cc1ccccc1Oc1cccc2c1OC(=O)CC2` yielded a melting point of 80 to 82 °C.

`Cc1ccc(Cn2nc(C(=O)NC3CCCCC3C)cc2-c2ccc(Cl)c(Cl)c2)cc1Cl` (stereo not given): the melting point is 165 °C.

With `COc1c(N2CC(C)C(N)C(C)(C)C2)c(F)c(N)c2c(=O)c(C(=O)O)cn(C3CC3)c12` (stereo not given), the melting point lay in the range of 248 to 252 °C.

Turning to `CCCCCCCCCCCCCCOc1ccc(C(=O)N(Cc2cccnc2)C(C)=O)cc1`, the melting point lay within 46 to 48 °C.

For `O=C(O)COc1c(Cl)cc(Cl)cc1COc1cccc(OCc2ccc3cc(F)ccc3n2)c1`, the melting point lay in the range of 189 to 190 °C.

For `CCOC(=O)c1sc(-n2c(=O)n(Cc3ccc(F)cc3)c3ccccc32)nc1C`, the melting point lay in the range of 192 to 193 °C.

Compound `NNC(=O)Nc1nccs1` gave a melting point of 166 to 167 °C.

In turn, `O=c1c(N2CCNCC2)nc2ccccc2n1-c1ccccc1Cl` showed a melting point of 135 to 137 °C.

Turning to `COC(=O)c1cc(Cl)ccc1N(C)S(=O)(=O)c1ccc(C)cc1`, the melting point is 65.5 to 67 °C.

As for `COC(=O)C=C(C)c1ccc(-c2ccc(F)cc2F)cc1`, the melting point lay in the range of 90 to 92 °C.

In turn, `N=C(N)Nc1nc(CSCCC(N)=O)cs1` showed a melting point of 193 to 194 °C.

As for `O=C1N(c2ccc(Cl)c(Cl)c2)CCON1c1ccccc1`, the melting point lay within 112 to 113 °C.

For `COCC(=O)N[C@H]1c2ccccc2C[C@@H]1C`, the melting point is 78 to 79 °C.

Regarding `CN(C)CCOC(=O)c1cc2cccc(OCc3ccccc3)c2[nH]1`, the melting point was in the range of 113 to 115 °C.

In turn, `O=c1c2c(O)cccc2[nH]c2c([N+](=O)[O-])ccc(Cl)c12` showed a melting point of 265 to 267 °C.

The compound `COc1ccc(C=CC(=O)c2ccc(O)c(CC(=O)O)c2)cc1` returned a melting point of 247 °C.

In turn, `Nc1nc(N)nc(N2CCNCC2)n1` showed a melting point of 262 to 268 °C.

In the case of `CCCCCN1CC[C@@H](c2ccccc2Br)[C@H](CO)C1` (racemic), the melting point was in the range of 119 to 120 °C.

In turn, `N#Cc1ccc(N(Cc2ccc(Br)cc2)n2cnnc2)cc1-c1ccc(O)cc1` showed a melting point of 222 to 224 °C.

For `Cc1cc(C2=NOC(c3cc(Cl)cc(Cl)c3)(C(F)(F)F)C2)ccc1C(=O)Cl` (stereo not given), the melting point was in the range of 140 to 143 °C.

`Cc1c(OCC(F)(F)F)ccnc1CS(=O)c1nc2ccccc2n1N` (stereo not given) showed a melting point of 111 to 113 °C.

The compound `COc1cc2c(cc1OC)C(=O)C(=Cc1cccc([N+](=O)[O-])c1)CC2` displayed a melting point of 186 to 187 °C.

`Nc1cc(Cl)ccc1C(=O)c1cccc(O)c1` had a melting point of 137 to 138 °C.

For the compound `O=c1nc(-c2ccc[nH]2)sc2ccccc12`, the melting point fell in the range of 202 to 203 °C.

The compound `O=C(O)c1ccc(C(O)(C(F)(F)F)C(F)(F)F)cc1C(=O)O` gave a melting point of 183 to 185 °C.

`N#CN1C(=O)c2ccccc2C1=O` showed a melting point of 189 to 191 °C.

Turning to `Cn1c(=O)cc(CCN2CCC(c3c[nH]c4ccccc34)CC2)c2ccccc21`, the melting point lay within 79 to 81 °C.

`COc1cc(OC)nc(C(=O)c2nccc(-c3ccccc3)c2C(=O)n2ccnc2)c1` registered a melting point of 126 to 128 °C.

`CCOP(=O)(OCC)/C(O)=C/c1cn(-c2ccccc2)nc1OCc1ccc(OCc2nc(-c3ccco3)oc2C)c(OC)c1` had a melting point of 147 to 149 °C.

The compound `CC(C)(C)NC(=O)NCc1ccc2c(c1)C(=O)N(C1CCC(=O)NC1=O)C2=O` (stereo not given) came in with a melting point of 202 to 204 °C.

The compound `FC(F)(F)c1ccn(-c2cc(-c3ccc4c(c3)OCO4)nc3ccccc23)n1` returned a melting point of 98 to 100 °C.

`CCCCCCCCCCCC(=O)NCCCCCC(=O)OO` displayed a melting point of 70 to 75 °C.

In the case of `COc1ccc2c(Cc3c(Cl)cncc3Cl)nncc2c1C=Cc1ccccc1`, the melting point is 180 to 182 °C.

`CC(=O)N1CC(=O)N2CCc3ccccc3C2C1` (stereo not given) had a melting point of 144 to 145 °C.

Compound `O=C(Nc1ccc(Oc2ccnc(N3CCC4(CC3)OCCO4)n2)c2ccccc12)c1cc(F)cc(N2CCCCC2)c1` had a melting point of 195 to 196 °C.

In turn, `CCCCCCCCCCCC(=O)N[C@@H](Cc1ccc(O)cc1)C(=O)OC` showed a melting point of 89 °C.

As for `O=C(NS(=O)(=O)NC(=O)OCc1ccccc1)OCc1ccccc1`, the melting point is 139 to 141 °C.

`O=C(Nc1ccc(-n2nc(C(F)(F)F)cc2C(F)(F)F)cc1)c1cc2cc(F)ccc2[nH]1`: the melting point lay within 253 to 255 °C.

Regarding `NCc1ccc([N+](=O)[O-])cc1O`, the melting point was in the range of 210 to 215 °C.

Take `CCCCOc1ccc(S(=O)(=O)N2CCC(OS(C)(=O)=O)C2)cc1` (stereo not given): the melting point lay within 80 to 81 °C.

For `Cc1cc2c(cc1C)C(=O)C(CN1CCC3(CC1)C(=O)NCN3c1ccccc1)CC2` (stereo not given), the melting point was 182 to 183 °C.

As to `CCN(CC)C[C@@H]1CCCN1CC(=O)N1c2ccccc2C(=O)Nc2cccnc21`, the melting point was in the range of 192 to 193 °C.

In the case of `C#CCn1c2c(c(=O)n(-c3ccc(Cl)c(C(=O)OCC)c3)c1=O)CCC2`, the melting point fell in the range of 121 to 123 °C.

Take `CS(=O)(=O)NCCn1nccc1-c1ccc(Oc2ccc(F)cc2)cc1`: the melting point lay in the range of 96 to 98 °C.

Compound `O=C1c2ccccc2C(=O)N1CCn1nc(O)c2[nH]c3cc(Cl)ccc3c(=O)c2c1=O` showed a melting point of 349 to 352 °C.

`COC(=O)c1cc(C(=O)c2nc(Br)c3ccccn23)ccc1N` gave a melting point of 230 °C.

`Cc1ccc(S(=O)(=O)N2[C@@H](Cc3nc(C4CC4)no3)CC[C@H]2c2ccc(F)cc2)cc1` (racemic) gave a melting point of 102 °C.

Regarding `O=C(NC(c1ccccc1)c1cc2ccncc2[nH]1)c1ccccc1` (stereo not given), the melting point was 206 to 208 °C.

In the case of `COc1ccc(Cn2c(=S)[nH]c(=O)c3[nH]c(C(C)C)nc32)cc1OCc1ccccc1`, the melting point lay within 280 to 281 °C.

With `O=S(=O)(Nc1cccc(OCc2ccc3ccccc3n2)c1)C(F)(F)F`, the melting point was 144 to 146 °C.

`COc1cc(C=CC(=O)c2ccc([N+](=O)[O-])cc2)cc(OC)c1` came in with a melting point of 166 °C.

Regarding `Cc1cc(S(=O)(=O)c2cc(C)c(O)c(C3CCCCC3)c2)cc(C2CCCCC2)c1O`, the melting point was in the range of 264 to 265 °C.

With `Cc1c(C#N)oc2c(-c3ccc(F)cc3)c(-c3ccc(S(N)(=O)=O)cc3)nn12`, the melting point lay within 231 to 232 °C.

The compound `CCc1nc2c(N)nc3cccnc3c2n1CCCCCC(N)=O` had a melting point of 220 to 221 °C.

`O=C(O)C1=Cc2cc(C(=O)c3ccc(O)cc3)ccc2OC1C(F)(F)F` (stereo not given): the melting point fell in the range of 234 to 240 °C.

For the compound `CCCn1c(=O)c(C#N)c(N2CCN(C(=O)c3cccs3)CC2)c2cccnc21`, the melting point was found to be 196 °C.

As to `CC(C#N)=C1CCN(c2ccc(N3C[C@H](CNC(=O)C(Cl)Cl)OC3=O)cc2F)CC1`, the melting point is 202 to 204 °C.

In turn, `CCOC(=O)c1cc2cc(NC(=O)OC(C)(C)C)ccc2[nH]1` had a melting point of 190 to 192 °C.

On to `N#CN(c1ccccc1)c1nc(N(C#N)c2ccccc2)nc(N(c2ccccc2)c2ccccc2)n1`, for which the melting point fell in the range of 280 to 284 °C.

For `O=c1c(-c2cccc(C(F)(F)F)c2F)nn(Cc2ccc(F)cc2F)c2cc(Cl)ccc12`, the melting point lay within 118 to 120 °C.

With `CCCCCCCCc1ccc(OCC(=O)Cn2cccc2)cc1`, the melting point fell in the range of 58 to 59 °C.

`OC(CCl)COc1cccc(-c2nc(C(F)(F)F)c[nH]2)c1` (stereo not given) displayed a melting point of 181 to 183 °C.

The compound `N#Cc1ccc(-c2ccc(C(=O)O)nc2)cc1` had a melting point above 260 °C.

`Cn1cc(-c2nc3c(N[C@H]4[C@@H](C(N)=O)[C@@H]5C=C[C@H]4C5)ccnc3[nH]2)cn1` returned a melting point of 236 to 238 °C.

With `Cc1cc(C(N)=O)ncc1C(c1c(F)ccc(F)c1F)S(=O)(=O)c1ccc(C(F)(F)F)nc1` (stereo not given), the melting point was in the range of 237 to 238 °C.

Compound `CC(=O)n1nc(N2CCN(C)CC2)c2ccccc21` came in with a melting point of 106 to 108 °C.

For `Cc1c2n(c(=O)c3c(O)cccc13)CCCS2=O` (stereo not given), the melting point was 169 to 170 °C.

`CCOC(=O)N1CCN(c2ccc(Br)cn2)CC1` registered a melting point of 68 °C.

For `CC(C)c1cccc(C(C)C)c1NC(=O)CN1CN(c2ccccc2)C2(CCCCC2)C1`, the melting point is 151 to 153 °C.

For the origin of these results see a melting point compilation (Tetko et al.; mined from patent text by program, amines drawn as free bases though some values may be those of a salt).
